Laboratory results: patent US11534457B2, “Use of dextran sulfate” (priority 2017, dated 2022)

Tested on: closed-head diffuse severe TBI (sTBI)
Experiment: sTBI in rats, dose study, HPLC of energy metabolites, antioxidants, oxidative/nitrosative stress biomarkers, NAA (Example 7)
Assay type: in vivo, Male Wistar rats
Method: Male Wistar rats (n=160) of 300-350 g body weight were used in this study. They were fed with standard laboratory diet and water ad libitum in a controlled environment.
As the accepted anesthetic mixture, animals received 35 mg/kg b.w. ketamine and 0.25 mg/kg body weight midazolam by intramuscular injection. Diffuse sTBI was induced according to the “weight drop” impact acceleration model set up by Marmarou et al. J. Neurosurg. 1994, 80: 291-300. This model causes diffuse axonal injury and it is able to reproduce the physical and mechanical characteristics of the diffuse TBI in humans.
Severe TBI was induced by dropping a 450 g weight from 2 meters height onto the rat head protected by a helmet (metal disk previously fixed on the skull using dental cement) in order to uniformly distribute the mechanical force to the brain. Rats were placed prone on a bed of specific polyurethane foam inserted in a special container; this foam dissipates the major part of the potential energy (deriving from the mechanical forces) and prevents any rebound of the animal after the impact that could produce spinal damages.
After 2 or 7 days from TBI induction, rats were anesthetized again and then immediately sacrificed. These time points are coincident with the worst biochemical derangement (2 days) or, in the case of a mildly injured brain, with a full metabolic recovery (7 days).
The drug treatment consisted in a subcutaneous injection of 0.5 ml of LMW-DS (Tikomed) and administered at 3 different concentrations (1, 5 and 15 mg/kg body weight), according to the schematic protocol described below.
(§1) Rats subjected to sTBI and receiving a single administration of LMW-DS after 30 minutes post-TBI, with sacrifice at 2 days post-TBI. Animals were divided in the following subgroups: • 1. 12 animals subjected to sTBI and treated with 1 mg/kg b.w. LMW-DS • 2. 12 animals subjected to sTBI and treated with 5 mg/kg b.w. LMW-DS • 3. 12 animals subjected to sTBI and treated with 15 mg/kg b.w. LMW-DS
as §1, with “at 7” for “at 2”
Rats (n=12) subjected to sTBI and receiving repeated administrations of the maximal dose of LMW-DS (15 mg/kg b.w.) after 30 minutes, 3 days and 5 days post-TBI, with sacrifice at 7 days post-TBI. Four additional rats were used for the histo-morphological studies. Total rats in this group: n=16
To minimize metabolite loss, an in vivo craniectomy was performed in all animals during anesthesia. The rat skull was carefully removed, the brain was exposed, sharply cut along the sagittal fissure and the two hemispheres were separated. The hemispheres dedicated to biochemical analyses were freeze-clamped by aluminum tongues pre-cooled in liquid nitrogen and then immersed in liquid nitrogen. The freeze-clamping procedure was introduced to accelerate freezing of the tissue, thus minimizing potential metabolite loss.
Tissue homogenization for metabolite analyses was effected as described below. After the wet weight (w.w.) determination, the frozen hemispheres were placed into 7 ml of ice-cold, nitrogen-saturated, precipitating solution (1:10 w/v) composed by CH3CN+10 mM KH2PO4, pH 7.40, (3:1; v:v), and the homogenization was performed using an Ultra-Turrax homogenizer set at 24,000 rpm/min (Janke & Kunkel, Staufen, Germany). After centrifugation at 20,690×g, for 10 min at 4° C., the clear supernatants were saved, pellets were supplemented with an aliquot of 10 mM KH2PO4 and homogenized again as described above and saved overnight at −20° C. in order to obtain a complete recovery of aqueous phase from tissue. […]

[1] = 1 mg/kg s.c. single, 30 min post-sTBI, sacrifice 2 days
[2] = 15 mg/kg s.c. single, 30 min post-sTBI, sacrifice 2 days
[3] = 2 days post sTBI, 5 or 15 mg/kg b.w.
[4] = rats, 7 days post-sTBI, single administration of 15 mg/kg b.w.

low molecular weight dextran sulfate [LMW-DS]
CDP choline, brain concentration [1]: 8.23 ± 1.22 nmol/g w.w. | GDP Glucose, brain concentration [1]: 65.66 ± 41.61 nmol/g w.w. | UDP-Glc, brain concentration [1]: 45.14 ± 6.68 nmol/g w.w. | UDP-GlcNac, brain concentration [1]: 96.62 ± 8.80 nmol/g w.w. | NAD^+/NADH ratio, brain (1 mg/kg s.c. single, 30 min post-sTBI, sacrifice 2 days, adimensional): 33.91 ± 9.32 | NAD^+/ADH, brain (1 mg/kg s.c. single, 30 min post-sTBI, sacrifice 7 days): 33.91 ± 9.32 | GDP Glucose, brain concentration (5 mg/kg s.c. single, 30 min post-sTBI, sacrifice 2 days): 83.81 ± 37.35 nmol/g w.w. | CYTIDINE, brain concentration [2]: 11.46 ± 2.07 nmol/g w.w. | GDP Glucose, brain concentration [2]: 84.24 ± 37.54 nmol/g w.w. | UDP-Glc, brain concentration [2]: 43.41 ± 06.43 nmol/g w.w. | β-PSEUDOURIDINE, brain concentration [2]: 7.84 ± 1.57 nmol/g w.w. | ascorbic acid and reduced glutathione (GSH) (2 days post sTBI): significantly ameliorated | cerebral tissue nitrites and nitrates (2 days post sTBI): evident decrease | concentrations of UTP and ADP (2 days post sTBI): No effects | de-phosphorylated purines and pyrimidines (2 days post sTBI): positively affected | nicotinic coenzyme pool and NAD/NADH ratio (2 days post sTBI, 15 mg/kg b.w.): effective only at the maximal dose tested | Acetyl-CoA [3]: partial rescue | whole brain NAA [3]: significantly higher than values found in sTBI rats | high energy phosphates (ATP, GTP, and CTP) vs sTBI (2 days post sTBI, all three dosages (1, 5, 15 mg/kg)): Significantly higher values | ATP level, lower than the value of controls (7 days post impact (untreated sTBI 35%)): 16% | NAA concentration, lower than the value of controls (7 days post impact (untreated sTBI 48%)): 16% | de-phosphorylated purines and pyrimidines (7 days post sTBI): positively affected | CoA-SH and Acetyl-CoA (7 days post sTBI, 5 or 15 mg/kg b.w. (single and repeat)): Remarkable positive effects | ATP (7 days post sTBI, any dose tested): significant increases | concentrations of nicotinic coenzymes (7 days post sTBI, excluding the lowest dose): significant improvement | ascorbic acid and GSH, with decrease of nitrites and nitrates (7 days post sTBI, highest single and repeat dose): particularly beneficial | ATP/ADP ratio (7 days post sTBI, increasing dose): progressively increased | whole brain NAA (7 days post sTBI, increasing single doses or repeat maximal dose): dose dependent increase | cerebral energy metabolism (7 days post sTBI, more evident above 1 mg/kg b.w.): general improvement | NAD+ level and NAD/NADH ratio (7 days post sTBI, single and repeat 15 mg/kg b.w.): able to normalize NAD+ level and to restore the correct NAD/NADH ratio | ADENOSINE concentration in deproteinized brain homogenates (rats, 7 days post-sTBI, repeated administration of 15 mg/kg b.w.): 40.84 ± 30.25 nmol/g w.w. | GMP concentration in deproteinized brain homogenates (rats, 7 days post-sTBI, single administration of 1 mg/kg b.w.): 113.06 ± 53.51 nmol/g w.w. | ADENOSINE concentration in deproteinized brain homogenates [4]: 55.95 ± 41.44 nmol/g w.w. | CDP choline concentration in deproteinized brain homogenates [4]: 10.06 ± 3.23 nmol/g w.w.
